Marks after values point to notes of the source that are not given here.
Legend:
Assay type in all cases: cell-based
[1] = system: H3K9me2/3 and H3K9ac in pronuclear chromatin of porcine zygotes; assay: Zygote quality: methylation and acetylation of histone H3 on lysine K9 in pronuclear chromatin after IVF; conditions: related to untreated vehicle, DMSO = 1, preliminary data
Protocol: (§1) After 44 h of IVM, cumulus cells were removed with 0.1% hyaluronidase in TL-HEPES-PVA and the metaphase II (MII) oocytes with extruded first polar body were selected for IVF. The oocytes were washed three-times with modified Tris-buffered medium (mTBM; Abeydeera et al. Theriogenology 50:747-756, 1998) with 0.2% bovine serum albumin (BSA; A7888; Sigma) and placed into 100 μL drops of mTBM, covered with mineral oil in a 35 mm Petri dish. The dishes were allowed to equilibrate at 38.5° C. and 5% CO2 for 30 min before spermatozoa were added for fertilization. Spermatozoa were prepared as follows: 1 mL liquid semen preserved in BTS-based extender was washed twice in phosphate buffered saline (PBS) with 0.1% PVA (PBS-PVA) at 1500 rpm for 5 min. The last wash was supplemented with MitoTracker CMTRos (400 nM; M7510, Invitrogen) for 10 min at 39° C., used to tag sperm mitochondria that associate with the paternal pronucleus inside the fertilized oocytes. Labeled spermatozoa were resuspended in mTBM ([…]) and 1 μL of this sperm suspension was added to the medium containing the oocytes to give a final sperm concentration of 2.5 or 5×10^5 spermatozoa mL^−1. Oocytes were co-incubated with spermatozoa for 5 to 6 h at 38.5° C. and 5% CO2 in air. Thereafter, oocytes were washed and transferred into 100 μL PZM3 medium (Yoshioka et al. Biol Reprod 66:112-119, 2002) containing 0.4% BSA (A6003; Sigma) for further culture for 22 h. Simultaneously, presumed zygotes were cultured in 500 μL of PZM3 medium for 144 hrs to reach blastocyst stage. PZM3 was supplemented with the object of invention, i.e. N-benzyl-3,5-dicarbethoxy-4-phenyl-1,4-dihydropyridine, diluted in DMSO. Vehicle control contained DMSO only in equal concentration (0.1%). Tested concentrations of the compound are 1.5 and 3 μM, based on preliminary experiments evaluating the range 0.3-30 μM (see Table 1).

porcine embryos = assay: Embryonic development and blastocyst formation after 144 hr IVC
Protocol: (§2) Porcine ovaries were obtained from 6- to 8-month-old non-cycling gilts (a crossbreed of Landrace x Large White) at the local slaughterhouse (Jatky Plzen a.s., Plzen, Czech Republic) and transported to laboratory at 39° C. Cumulus-oocyte complexes (COCs) were collected from ovarian follicles with a diameter of 2-5 mm by aspiration with a 20-gauge needle and handled in HEPES-buffered Tyrode lactate medium containing 0.01% (w/v) polyvinyl alcohol (TL-HEPES-PVA). Only fully grown oocytes with evenly dense cytoplasm, surrounded by compact cumuli, were selected for IVM and washed in maturation medium. The medium used for IVM was modified tissue culture medium (mTCM) 199 (Gibco, Life Technologies, UK) supplemented with 0.1% PVA, 3.05 mM D-glucose, 0.91 mM sodium pyruvate, […], 0.5 μg·mL^−1 LH (Sigma-Aldrich, USA), 0.5 μg·mL^−1 FSH (Sigma), 10 ng·mL^−1 epidermal growth factor (EGF; Sigma), 10% porcine follicular fluid, 75 μg·mL^−1 penicillin G and 50 μg·mL^−1 streptomycin. After 22 h of culture, the COCs were cultured in TCM199 without LH and FSH for an additional 22 h. The COCs were cultured in 500 μL of the medium covered by mineral oil in a four-well Petri dish (Nunc, Denmark), at 39° C. and 5% CO2 in air (Abeydeera et al. Theriogenology 50:747-756, 1998).
as §1
(§3) Within the imaging of 22 h zygotes, an assessment of penetration rate, creation of paternal pronucleus/pronuclei and monospermic fertilization was performed. Embryo cleavage was assessed by microscopy at 144 h of IVC. After 144 h of IVC, embryos were fixed in 2% formaldehyde for 40 min at room temperature (RT), washed three times with PBS, permeabilized with PBS-Triton X-100 for 30 min, and stained with 2.5 μg/mL DAPI (DNA staining; Molecular Probes, Eugene, Oreg., USA) for 40 min. Embryo cleavage, blastocyst formation, and cell number per blastocyst were assessed under an Eclipse Ci fluorescence microscope (Nikon Co., Tokyo, Japan).
(§4) Data are presented as the mean±S.E.M. of at least three independent experiments. […]

[2] = system: porcine oocytes and zygotes; assay: IVF results after 22 hr IVC (penetration rate, paternal pronucleus, monospermic fertilization)
Protocol: as §2, §1, §3, §4

[3] = 3.0 μM, 22 hr IVC, calculated from penetrated oocytes

Compound: CCOC(=O)C1=CN(Cc2ccccc2)C=C(C(=O)OCC)C1c1ccccc1 [N-benzyl-3,5-dicarbethoxy-4-phenyl-1,4-dihydropyridine]
- H3K9ac ([1]; 0.3 μM): 0.61
- H3K9me2/3 ([1]; 0.3 μM): 2.72
- H3K9ac ([1]; 3.0 μM): 0.63
- H3K9me2/3 ([1]; 3.0 μM): 1.64
- H3K9ac ([1]; 30 μM): 1.36
- H3K9me2/3 ([1]; 30 μM): 0.76
- Mean cell No. per blastocyst (mean ± SEM) (porcine embryos; 1.5 μM): 32.7 ± 2.5^a
- No. of blastocysts (porcine embryos; 1.5 μM): 10
- No. of cleaved oocytes (porcine embryos; 1.5 μM): 47
- blastocysts (mean % ± SEM) (porcine embryos; 1.5 μM): 14.5 ± 7.2%
- cleaved oocytes (mean % ± SEM) (porcine embryos; 1.5 μM): 70.2 ± 7.3%
- Mean cell No. per blastocyst (mean ± SEM) (porcine embryos; 3 μM): 38.4 ± 4.2^a
- No. of blastocysts (porcine embryos; 3 μM): 18
- No. of cleaved oocytes (porcine embryos; 3 μM): 44
- blastocysts (mean % ± SEM) (porcine embryos; 3 μM): 32.9 ± 8.1%
- cleaved oocytes (mean % ± SEM) (porcine embryos; 3 μM): 62.7 ± 7.1%
- efficiency compared with naturally occurring polyphenols (resveratrol) (porcine embryos; comparison with resveratrol): even more efficient than naturally occurring polyphenols
- penetrated oocytes (mean % ± SEM) ([2]; 3.0 μM, 22 hr IVC): 42.8%
- No. of monospermic fertilization [2, 3]: 39
- No. of oocyte with PPN [2, 3]: 76
- monospermic fertilization (mean % ± SEM) [2, 3]: 42.4 ± 10.4%
- oocyte with PPN (mean % ± SEM) [2, 3]: 82.6 ± 6.7%
- No. of penetrated oocytes ([2]; 3.0 μM, 22 hr IVC, of 215 oocytes): 92
- polyspermic fertilization ([2]; in the presence of compound, versus DMSO vehicle): higher polyspermic fertilization

Compound: Oc1ccc(C=Cc2cc(O)cc(O)c2)cc1 [Resveratrol, reference compound]
- Mean cell No. per blastocyst (mean ± SEM) (porcine embryos; 3 μM): 39.3 ± 11.3^a
- No. of blastocysts (porcine embryos; 3 μM): 4
- No. of cleaved oocytes (porcine embryos; 3 μM): 47
- blastocysts (mean % ± SEM) (porcine embryos; 3 μM): 6.2 ± 2.8%
- cleaved oocytes (mean % ± SEM) (porcine embryos; 3 μM): 67.7 ± 10.6%
